The text below walks through data of ChEMBL document CHEMBL1135108, “Bicyclic piperazinylbenzenesulphonamides are potent and selective 5-HT6 receptor antagonists” (Bioorg Med Chem Lett, 2002).

Test [1] deals with T1, Alpha-1B adrenergic receptor (Homo sapiens, UniProt P35368).
T1 sequence (P35368 whole entry): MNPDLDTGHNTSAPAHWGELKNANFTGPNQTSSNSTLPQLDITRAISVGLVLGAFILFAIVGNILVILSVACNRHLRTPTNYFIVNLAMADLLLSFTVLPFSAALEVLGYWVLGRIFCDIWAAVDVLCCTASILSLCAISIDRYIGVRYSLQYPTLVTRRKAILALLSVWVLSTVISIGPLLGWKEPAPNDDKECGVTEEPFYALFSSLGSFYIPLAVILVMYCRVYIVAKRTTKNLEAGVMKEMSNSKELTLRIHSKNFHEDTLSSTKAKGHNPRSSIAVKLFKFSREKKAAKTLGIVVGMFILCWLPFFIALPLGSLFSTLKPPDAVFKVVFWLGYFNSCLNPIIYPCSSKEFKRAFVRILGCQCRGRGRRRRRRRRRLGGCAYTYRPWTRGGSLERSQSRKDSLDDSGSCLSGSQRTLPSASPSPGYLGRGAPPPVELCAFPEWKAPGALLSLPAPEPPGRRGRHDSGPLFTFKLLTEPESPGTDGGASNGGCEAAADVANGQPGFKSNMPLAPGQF
Kind of test: The compound was tested for the binding affinity towards Alpha-1B adrenergic receptor.

The target of test [2] is 5-hydroxytryptamine receptor 1E (Homo sapiens, UniProt P28566). As to the kind of experiment: The compound was tested for the binding affinity towards human cloned 5-hydroxytryptamine 1E receptor in CHO cells, using [3H]5-HT as radioligand. In kind it is cell-based.
The target in the next test is D(3) dopamine receptor (Homo sapiens, UniProt P35462). Kind of test: The compound was tested for the binding affinity towards human cloned Dopamine receptor D3 in CHO cells, using [125I]iodosulpride as radioligand. In kind it is cell-based.
Test [3] has as its target T2, 5-hydroxytryptamine receptor 6 (Homo sapiens, UniProt P50406). As to the kind of experiment: The compound was tested for the binding affinity towards human cloned 5-hydroxytryptamine 6 receptor in HeLa cells, using […] as radioligand; n=3. It is filed as cell-based.
Test [4] deals with 5-hydroxytryptamine receptor 2A (Homo sapiens, UniProt P28223). Kind of test: The compound was tested for the binding affinity towards human cloned 5-hydroxytryptamine 2A receptor in HEK293 cells, using [3H]ketanserin as radioligand. It is filed as cell-based.
Test [5] addresses T3, 5-hydroxytryptamine receptor 1A (Homo sapiens, UniProt P08908).
T3 sequence (P08908 whole entry): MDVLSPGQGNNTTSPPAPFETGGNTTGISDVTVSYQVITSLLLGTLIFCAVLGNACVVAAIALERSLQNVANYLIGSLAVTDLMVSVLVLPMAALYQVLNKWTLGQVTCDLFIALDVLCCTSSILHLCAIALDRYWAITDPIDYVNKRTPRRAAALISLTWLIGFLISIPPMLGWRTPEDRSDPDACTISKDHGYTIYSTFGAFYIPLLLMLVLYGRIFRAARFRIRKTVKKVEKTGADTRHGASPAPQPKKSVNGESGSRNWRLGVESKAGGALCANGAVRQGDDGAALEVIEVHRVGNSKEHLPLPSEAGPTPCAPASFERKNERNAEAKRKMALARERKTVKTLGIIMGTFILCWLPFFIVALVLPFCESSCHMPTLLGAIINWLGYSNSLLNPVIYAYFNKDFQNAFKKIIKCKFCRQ
As to the kind of experiment: The compound was tested for the binding affinity towards human cloned 5-hydroxytryptamine 1A receptor in HEK293 cells, using [3H]8-OH-DPAT as radioligand. In kind it is cell-based.

Test [6] deals with T4, 5-hydroxytryptamine receptor 2C (Homo sapiens, UniProt P28335).
T4 sequence (P28335 whole entry): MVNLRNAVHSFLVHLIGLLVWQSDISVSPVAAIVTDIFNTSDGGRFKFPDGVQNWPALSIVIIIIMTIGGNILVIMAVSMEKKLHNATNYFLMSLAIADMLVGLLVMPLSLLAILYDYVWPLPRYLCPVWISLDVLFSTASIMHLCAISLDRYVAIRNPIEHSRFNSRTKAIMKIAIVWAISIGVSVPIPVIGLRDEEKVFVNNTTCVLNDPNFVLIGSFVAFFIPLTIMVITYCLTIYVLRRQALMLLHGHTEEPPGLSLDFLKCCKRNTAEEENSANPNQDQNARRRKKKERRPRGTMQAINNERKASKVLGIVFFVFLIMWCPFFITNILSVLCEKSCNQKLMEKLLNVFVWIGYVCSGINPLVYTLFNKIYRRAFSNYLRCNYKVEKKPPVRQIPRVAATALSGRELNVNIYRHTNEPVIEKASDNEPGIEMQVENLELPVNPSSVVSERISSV
Kind of test: The compound was tested for the binding affinity towards human cloned 5-hydroxytryptamine 2C receptor in HEK293 cells, using […] as radioligand. In kind it is cell-based.

Test [7] concerns the target 5-hydroxytryptamine receptor 1D (Homo sapiens, UniProt P28221). As to the kind of experiment: The compound was tested for the binding affinity towards human cloned 5-hydroxytryptamine 1D receptor in CHO cells, using [3H]5-HT as radioligand. It is filed as cell-based.
Test [8] deals with 5-hydroxytryptamine receptor 1B (Homo sapiens, UniProt P28222). Kind of test: The compound was tested for the binding affinity towards human cloned 5-hydroxytryptamine 1B receptor in CHO cells, using [3H]5-HT as radioligand. It is filed as cell-based.
For another test, the target named is D(2) dopamine receptor (Homo sapiens, UniProt P14416). Kind of test: The compound was tested for the binding affinity towards human cloned Dopamine receptor D2 in CHO cells, using [125I]iodosulpride as radioligand. In kind it is cell-based.
Test [9] addresses 5-hydroxytryptamine receptor 2B (Homo sapiens, UniProt P41595). As to the kind of experiment: The compound was tested for the binding affinity towards human cloned 5-hydroxytryptamine 2B receptor in HEK293 cells, using [3H]5-HT as radioligand. In kind it is cell-based.
Test [10] addresses T5, 5-hydroxytryptamine receptor 1F (Homo sapiens, UniProt P30939).
T5 sequence (P30939 whole entry): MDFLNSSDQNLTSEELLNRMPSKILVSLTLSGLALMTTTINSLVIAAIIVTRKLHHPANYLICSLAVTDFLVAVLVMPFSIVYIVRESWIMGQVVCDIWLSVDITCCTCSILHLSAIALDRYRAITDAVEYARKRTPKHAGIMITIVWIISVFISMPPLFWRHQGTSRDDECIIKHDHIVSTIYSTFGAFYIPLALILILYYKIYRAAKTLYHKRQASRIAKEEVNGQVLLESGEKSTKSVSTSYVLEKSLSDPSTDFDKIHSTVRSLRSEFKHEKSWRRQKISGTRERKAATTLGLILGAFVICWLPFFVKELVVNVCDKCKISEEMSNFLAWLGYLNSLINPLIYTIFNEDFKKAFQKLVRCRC
Kind of test: The compound was tested for the binding affinity towards human cloned 5-hydroxytryptamine 1F receptor in CHO cells, using [3H]5-HT as radioligand. In kind it is cell-based.

Test [11] has as its target 5-hydroxytryptamine receptor 4 (Homo sapiens, UniProt Q13639). Kind of test: The compound was tested for the binding affinity towards human cloned 5-hydroxytryptamine 4 receptor in HeLa cells, using [3H]LSD as radioligand. It is filed as cell-based.
Test [12] deals with 5-hydroxytryptamine receptor 7 (Homo sapiens, UniProt P34969). As to the kind of experiment: The compound was tested for the binding affinity towards human cloned 5-hydroxytryptamine 7 receptor in HEK293 cells, using [3H]5-CT as radioligand. In kind it is cell-based.
For test [13], the target named is T2, 5-hydroxytryptamine receptor 6. Kind of test: The compound was tested for the binding affinity towards human cloned 5-hydroxytryptamine 6 receptor in HeLa cells, using […] as radioligand; n=9. In kind it is cell-based.

A word on the Ki: it is a dissociation constant, usually derived from enzyme kinetics or from competition with a known ligand. A higher Ki goes with lower affinity.

Sequence of 5-hydroxytryptamine receptor 1E (P28566 whole entry): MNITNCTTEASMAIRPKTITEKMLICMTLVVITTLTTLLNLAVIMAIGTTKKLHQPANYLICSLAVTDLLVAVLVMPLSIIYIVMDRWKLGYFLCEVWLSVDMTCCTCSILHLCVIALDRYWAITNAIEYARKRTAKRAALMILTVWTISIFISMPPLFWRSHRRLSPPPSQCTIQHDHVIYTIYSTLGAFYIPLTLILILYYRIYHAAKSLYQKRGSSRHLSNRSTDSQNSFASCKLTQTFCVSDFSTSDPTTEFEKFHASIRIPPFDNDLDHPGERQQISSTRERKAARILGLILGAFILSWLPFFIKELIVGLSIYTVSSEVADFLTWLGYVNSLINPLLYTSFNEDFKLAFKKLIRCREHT
Sequence of 5-hydroxytryptamine receptor 1B (P28222 whole entry): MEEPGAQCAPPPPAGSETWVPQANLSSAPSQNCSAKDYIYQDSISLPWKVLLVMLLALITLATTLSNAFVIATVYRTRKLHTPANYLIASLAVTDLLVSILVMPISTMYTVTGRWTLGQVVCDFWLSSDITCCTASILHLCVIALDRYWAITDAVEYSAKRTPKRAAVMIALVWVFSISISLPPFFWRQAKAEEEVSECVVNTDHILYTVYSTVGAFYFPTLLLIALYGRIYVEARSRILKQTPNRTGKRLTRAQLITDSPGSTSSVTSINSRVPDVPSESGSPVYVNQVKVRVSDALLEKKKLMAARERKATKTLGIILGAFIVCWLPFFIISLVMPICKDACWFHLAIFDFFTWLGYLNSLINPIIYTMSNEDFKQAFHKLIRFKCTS
T2 sequence (P50406 whole entry): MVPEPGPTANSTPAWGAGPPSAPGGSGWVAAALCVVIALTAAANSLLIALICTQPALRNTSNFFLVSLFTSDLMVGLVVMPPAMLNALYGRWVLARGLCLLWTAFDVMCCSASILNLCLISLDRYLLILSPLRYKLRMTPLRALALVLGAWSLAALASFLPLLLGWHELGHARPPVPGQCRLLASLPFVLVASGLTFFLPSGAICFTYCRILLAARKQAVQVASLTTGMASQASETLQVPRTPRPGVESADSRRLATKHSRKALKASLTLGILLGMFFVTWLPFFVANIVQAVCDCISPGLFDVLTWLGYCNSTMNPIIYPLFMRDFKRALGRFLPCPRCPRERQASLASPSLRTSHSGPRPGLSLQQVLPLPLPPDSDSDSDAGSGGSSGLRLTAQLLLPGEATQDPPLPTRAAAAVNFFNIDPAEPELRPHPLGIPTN
Sequence of 5-hydroxytryptamine receptor 2B (P41595 whole entry): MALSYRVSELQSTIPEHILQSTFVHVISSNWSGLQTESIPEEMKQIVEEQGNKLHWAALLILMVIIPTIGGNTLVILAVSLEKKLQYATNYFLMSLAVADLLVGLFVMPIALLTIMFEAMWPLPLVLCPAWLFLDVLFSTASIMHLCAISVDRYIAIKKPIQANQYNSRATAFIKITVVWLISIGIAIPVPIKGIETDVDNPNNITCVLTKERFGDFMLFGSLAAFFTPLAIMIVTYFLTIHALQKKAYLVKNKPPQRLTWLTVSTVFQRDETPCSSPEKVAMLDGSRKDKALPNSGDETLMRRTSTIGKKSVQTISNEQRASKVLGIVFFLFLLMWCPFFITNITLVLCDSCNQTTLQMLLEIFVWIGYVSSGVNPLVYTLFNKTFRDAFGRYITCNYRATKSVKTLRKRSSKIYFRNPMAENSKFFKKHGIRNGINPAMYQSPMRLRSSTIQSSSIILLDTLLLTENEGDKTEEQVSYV
Sequence of D(3) dopamine receptor (P35462 whole entry): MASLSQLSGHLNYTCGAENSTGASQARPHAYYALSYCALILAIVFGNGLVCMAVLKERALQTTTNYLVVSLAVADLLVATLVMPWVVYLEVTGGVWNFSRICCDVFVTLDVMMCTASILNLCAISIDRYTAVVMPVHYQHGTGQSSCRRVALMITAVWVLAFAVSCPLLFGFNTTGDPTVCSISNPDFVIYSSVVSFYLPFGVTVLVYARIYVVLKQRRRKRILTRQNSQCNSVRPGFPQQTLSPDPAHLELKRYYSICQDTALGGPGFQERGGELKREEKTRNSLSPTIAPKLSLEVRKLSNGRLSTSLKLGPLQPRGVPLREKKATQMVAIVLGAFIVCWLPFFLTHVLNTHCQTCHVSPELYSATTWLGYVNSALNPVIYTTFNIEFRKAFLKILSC
Sequence of D(2) dopamine receptor (P14416 whole entry): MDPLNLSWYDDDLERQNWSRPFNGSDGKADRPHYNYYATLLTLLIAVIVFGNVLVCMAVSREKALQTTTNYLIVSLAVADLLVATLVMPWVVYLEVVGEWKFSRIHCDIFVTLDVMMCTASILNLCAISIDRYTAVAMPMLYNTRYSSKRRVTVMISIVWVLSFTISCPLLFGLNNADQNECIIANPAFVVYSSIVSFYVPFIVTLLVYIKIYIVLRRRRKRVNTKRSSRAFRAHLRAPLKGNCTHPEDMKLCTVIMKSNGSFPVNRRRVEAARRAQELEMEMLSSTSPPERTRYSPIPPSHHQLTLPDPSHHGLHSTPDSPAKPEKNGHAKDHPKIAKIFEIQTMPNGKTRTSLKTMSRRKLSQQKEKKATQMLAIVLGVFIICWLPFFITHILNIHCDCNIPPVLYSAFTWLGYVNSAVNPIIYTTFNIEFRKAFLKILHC
Sequence of 5-hydroxytryptamine receptor 7 (P34969 whole entry): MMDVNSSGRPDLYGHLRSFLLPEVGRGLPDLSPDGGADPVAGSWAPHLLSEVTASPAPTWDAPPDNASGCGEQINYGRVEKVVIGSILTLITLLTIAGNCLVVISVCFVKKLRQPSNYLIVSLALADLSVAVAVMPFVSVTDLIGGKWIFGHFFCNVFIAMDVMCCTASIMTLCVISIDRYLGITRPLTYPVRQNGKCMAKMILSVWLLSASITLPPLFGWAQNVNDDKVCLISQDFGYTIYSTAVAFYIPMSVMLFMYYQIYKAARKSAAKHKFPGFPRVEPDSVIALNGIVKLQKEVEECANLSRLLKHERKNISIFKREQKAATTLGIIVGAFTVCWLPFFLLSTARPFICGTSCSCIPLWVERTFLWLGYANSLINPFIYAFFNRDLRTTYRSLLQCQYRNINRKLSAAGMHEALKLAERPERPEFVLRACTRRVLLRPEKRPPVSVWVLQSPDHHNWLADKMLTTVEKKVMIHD
Sequence of 5-hydroxytryptamine receptor 1D (P28221 whole entry): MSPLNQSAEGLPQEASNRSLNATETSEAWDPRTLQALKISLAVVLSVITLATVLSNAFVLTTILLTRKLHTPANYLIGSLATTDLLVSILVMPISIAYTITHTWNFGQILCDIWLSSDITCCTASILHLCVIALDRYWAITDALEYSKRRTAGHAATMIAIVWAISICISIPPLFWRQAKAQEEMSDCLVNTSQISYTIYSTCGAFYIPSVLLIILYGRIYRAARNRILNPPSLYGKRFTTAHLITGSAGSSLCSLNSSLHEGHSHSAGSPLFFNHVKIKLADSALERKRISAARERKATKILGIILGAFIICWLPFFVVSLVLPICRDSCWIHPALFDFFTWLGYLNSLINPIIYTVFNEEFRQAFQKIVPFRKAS
Sequence of 5-hydroxytryptamine receptor 4 (Q13639 whole entry): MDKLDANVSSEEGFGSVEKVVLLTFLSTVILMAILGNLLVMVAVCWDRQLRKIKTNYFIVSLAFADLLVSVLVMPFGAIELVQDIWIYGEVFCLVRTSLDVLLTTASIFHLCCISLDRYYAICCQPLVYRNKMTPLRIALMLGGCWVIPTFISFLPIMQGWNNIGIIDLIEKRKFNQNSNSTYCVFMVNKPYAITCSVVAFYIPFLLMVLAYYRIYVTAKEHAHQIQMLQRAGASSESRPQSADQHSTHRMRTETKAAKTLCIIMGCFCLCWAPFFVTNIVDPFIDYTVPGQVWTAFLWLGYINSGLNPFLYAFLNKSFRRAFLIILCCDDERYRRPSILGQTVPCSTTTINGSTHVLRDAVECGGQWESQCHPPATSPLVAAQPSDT
Sequence of 5-hydroxytryptamine receptor 2A (P28223 whole entry): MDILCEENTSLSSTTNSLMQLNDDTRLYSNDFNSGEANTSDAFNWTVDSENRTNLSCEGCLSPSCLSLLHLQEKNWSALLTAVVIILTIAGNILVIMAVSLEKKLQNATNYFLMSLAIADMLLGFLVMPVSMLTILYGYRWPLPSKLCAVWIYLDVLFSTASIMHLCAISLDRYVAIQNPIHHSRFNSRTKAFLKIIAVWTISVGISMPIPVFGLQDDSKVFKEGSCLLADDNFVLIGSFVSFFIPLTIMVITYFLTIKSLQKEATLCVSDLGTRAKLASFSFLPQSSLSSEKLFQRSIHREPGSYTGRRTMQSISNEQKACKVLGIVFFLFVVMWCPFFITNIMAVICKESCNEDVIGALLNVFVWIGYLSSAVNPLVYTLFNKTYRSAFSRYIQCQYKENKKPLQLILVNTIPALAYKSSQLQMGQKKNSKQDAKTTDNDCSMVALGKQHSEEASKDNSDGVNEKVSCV

`COc1ccc(NS(=O)(=O)c2sc3ccc(Cl)cc3c2C)cc1N1CCN2CCC[C@@H]2C1`: the Ki in test [1] was 1000 nM; in test [2], 1000 nM; on D(3) dopamine receptor, 631 nM; in test [3], 0.794 nM; in test [4], 1260 nM; in [5], 200 nM. The Ki is 631 nM in [6]; 126 nM in test [7]; 631 nM in test [8]; 2000 nM on D(2) dopamine receptor; 1260 nM in test [9]; 200 nM in [10]. Further, the inhibition constant Ki in test [11] is 1580 nM; in test [12], 631 nM.

For the molecule `COc1ccc(NS(=O)(=O)c2sc3ccc(Cl)cc3c2C)cc1N1CCN2CCC[C@H]2C1`, the Ki in test [1] is 1580 nM; in test [2], 1580 nM; in test [13] it was 0.794 nM; at D(3) dopamine receptor, 316 nM; in test [4], 251 nM; in [5], 126 nM. For the same molecule, the Ki in test [6] is 398 nM; in test [7], 100 nM; in test [8] it was 631 nM; on D(2) dopamine receptor, 1580 nM; in test [9], 1260 nM; in test [10], 316 nM. Moreover, the results for the inhibition constant (Ki) in test [11] and in test [12] were 5010 nM and 1000 nM, respectively.

Consider `COc1ccc(NS(=O)(=O)c2sc3ccc(Cl)cc3c2C)cc1N1CCN2CCCCC2C1` (configuration not stated), for which the inhibitory constant (Ki) is 2000 nM in [1]; > 1000 nM in test [2]; 1000 nM at D(3) dopamine receptor; 5.01 nM in test [3]; 631 nM in test [4]; 631 nM in [5]. In addition, the Ki in [6] was > 3160 nM; in test [7], 316 nM; in [8], 3980 nM; on D(2) dopamine receptor, 398 nM; in [9], 2000 nM; in test [10] it was > 1000 nM. The Ki in test [11] and in [12] was > 7940 nM throughout.
